Measured values published in patent US20130071854A1, “METHODS FOR THE IDENTIFICATION AND CHARACTERIZATION OF HDAC INTERACTING COMPOUNDS” (priority 2009, published 2013).
Like-named read-outs stand apart in the source and are kept apart here.

Experiments:
[1] = target: MiDAC complex (HDAC1/2, DNTTIP1, CDYL, MIDEAS) (Homo sapiens, UniProt Q13547+Q92769); experiment: Chemoproteomic binding profiling, K562 cell extract, SAHA/ITF2357 probe matrix (Kd app); design: rows headed: Kd^app CDYL; other: protein CDYL; MiDAC complex; conditions: protein CDYL
Chain of MiDAC complex (HDAC1/2, DNTTIP1, CDYL, MIDEAS) (Q13547 whole entry): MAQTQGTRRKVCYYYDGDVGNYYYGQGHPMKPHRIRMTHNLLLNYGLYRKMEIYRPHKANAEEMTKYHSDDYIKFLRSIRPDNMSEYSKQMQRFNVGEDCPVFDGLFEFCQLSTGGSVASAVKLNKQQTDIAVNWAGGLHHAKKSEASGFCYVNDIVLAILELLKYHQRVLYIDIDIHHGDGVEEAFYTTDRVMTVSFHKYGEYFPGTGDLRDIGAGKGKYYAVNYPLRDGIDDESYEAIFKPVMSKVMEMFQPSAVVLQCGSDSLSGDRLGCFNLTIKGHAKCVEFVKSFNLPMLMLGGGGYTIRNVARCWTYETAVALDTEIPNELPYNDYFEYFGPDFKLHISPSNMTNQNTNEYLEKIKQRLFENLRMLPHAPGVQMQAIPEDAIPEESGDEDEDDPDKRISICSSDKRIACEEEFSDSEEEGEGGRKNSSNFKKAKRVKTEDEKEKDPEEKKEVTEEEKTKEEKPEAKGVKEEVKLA
Chain of MiDAC complex (HDAC1/2, DNTTIP1, CDYL, MIDEAS) (Q92769 whole entry): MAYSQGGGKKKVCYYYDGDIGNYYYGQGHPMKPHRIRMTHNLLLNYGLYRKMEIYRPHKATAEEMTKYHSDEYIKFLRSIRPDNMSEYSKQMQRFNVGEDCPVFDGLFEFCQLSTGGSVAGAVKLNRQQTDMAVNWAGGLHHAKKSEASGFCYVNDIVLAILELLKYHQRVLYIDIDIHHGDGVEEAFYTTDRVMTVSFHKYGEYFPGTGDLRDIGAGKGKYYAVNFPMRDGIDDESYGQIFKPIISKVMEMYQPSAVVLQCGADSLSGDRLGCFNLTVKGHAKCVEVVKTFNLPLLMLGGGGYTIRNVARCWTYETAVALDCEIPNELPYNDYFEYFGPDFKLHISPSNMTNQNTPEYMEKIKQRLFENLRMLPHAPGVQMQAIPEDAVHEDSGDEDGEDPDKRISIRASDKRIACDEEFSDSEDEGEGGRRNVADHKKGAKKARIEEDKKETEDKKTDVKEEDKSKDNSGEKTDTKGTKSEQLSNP
Chain of MiDAC complex (HDAC1/2, DNTTIP1, CDYL, MIDEAS) (Q9Y232 whole entry partner): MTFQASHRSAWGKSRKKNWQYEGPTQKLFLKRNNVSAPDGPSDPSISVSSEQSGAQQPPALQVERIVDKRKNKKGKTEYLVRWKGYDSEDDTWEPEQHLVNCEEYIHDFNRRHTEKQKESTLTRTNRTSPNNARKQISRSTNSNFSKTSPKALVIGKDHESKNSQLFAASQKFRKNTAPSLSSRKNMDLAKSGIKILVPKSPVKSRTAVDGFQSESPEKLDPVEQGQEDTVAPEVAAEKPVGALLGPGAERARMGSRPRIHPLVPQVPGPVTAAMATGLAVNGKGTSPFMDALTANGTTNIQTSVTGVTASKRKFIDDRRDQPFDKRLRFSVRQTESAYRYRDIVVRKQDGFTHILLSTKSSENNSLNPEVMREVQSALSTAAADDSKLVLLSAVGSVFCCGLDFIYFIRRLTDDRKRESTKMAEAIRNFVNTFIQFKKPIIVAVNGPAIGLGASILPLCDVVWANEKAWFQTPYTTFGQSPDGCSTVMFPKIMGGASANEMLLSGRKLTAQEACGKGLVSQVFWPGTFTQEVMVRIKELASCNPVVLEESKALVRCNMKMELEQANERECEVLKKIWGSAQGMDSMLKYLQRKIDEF
Chain of MiDAC complex (HDAC1/2, DNTTIP1, CDYL, MIDEAS) (Q9H147 whole entry partner): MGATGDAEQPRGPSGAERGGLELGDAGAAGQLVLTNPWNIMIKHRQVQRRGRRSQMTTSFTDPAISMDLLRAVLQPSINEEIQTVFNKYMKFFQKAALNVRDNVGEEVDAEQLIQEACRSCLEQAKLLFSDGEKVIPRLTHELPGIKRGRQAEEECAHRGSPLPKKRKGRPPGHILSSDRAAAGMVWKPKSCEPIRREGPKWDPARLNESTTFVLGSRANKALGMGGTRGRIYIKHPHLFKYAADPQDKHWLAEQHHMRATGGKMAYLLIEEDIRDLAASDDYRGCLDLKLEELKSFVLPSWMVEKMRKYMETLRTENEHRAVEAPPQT
Chain of MiDAC complex (HDAC1/2, DNTTIP1, CDYL, MIDEAS) (Q6PJG2 whole entry partner): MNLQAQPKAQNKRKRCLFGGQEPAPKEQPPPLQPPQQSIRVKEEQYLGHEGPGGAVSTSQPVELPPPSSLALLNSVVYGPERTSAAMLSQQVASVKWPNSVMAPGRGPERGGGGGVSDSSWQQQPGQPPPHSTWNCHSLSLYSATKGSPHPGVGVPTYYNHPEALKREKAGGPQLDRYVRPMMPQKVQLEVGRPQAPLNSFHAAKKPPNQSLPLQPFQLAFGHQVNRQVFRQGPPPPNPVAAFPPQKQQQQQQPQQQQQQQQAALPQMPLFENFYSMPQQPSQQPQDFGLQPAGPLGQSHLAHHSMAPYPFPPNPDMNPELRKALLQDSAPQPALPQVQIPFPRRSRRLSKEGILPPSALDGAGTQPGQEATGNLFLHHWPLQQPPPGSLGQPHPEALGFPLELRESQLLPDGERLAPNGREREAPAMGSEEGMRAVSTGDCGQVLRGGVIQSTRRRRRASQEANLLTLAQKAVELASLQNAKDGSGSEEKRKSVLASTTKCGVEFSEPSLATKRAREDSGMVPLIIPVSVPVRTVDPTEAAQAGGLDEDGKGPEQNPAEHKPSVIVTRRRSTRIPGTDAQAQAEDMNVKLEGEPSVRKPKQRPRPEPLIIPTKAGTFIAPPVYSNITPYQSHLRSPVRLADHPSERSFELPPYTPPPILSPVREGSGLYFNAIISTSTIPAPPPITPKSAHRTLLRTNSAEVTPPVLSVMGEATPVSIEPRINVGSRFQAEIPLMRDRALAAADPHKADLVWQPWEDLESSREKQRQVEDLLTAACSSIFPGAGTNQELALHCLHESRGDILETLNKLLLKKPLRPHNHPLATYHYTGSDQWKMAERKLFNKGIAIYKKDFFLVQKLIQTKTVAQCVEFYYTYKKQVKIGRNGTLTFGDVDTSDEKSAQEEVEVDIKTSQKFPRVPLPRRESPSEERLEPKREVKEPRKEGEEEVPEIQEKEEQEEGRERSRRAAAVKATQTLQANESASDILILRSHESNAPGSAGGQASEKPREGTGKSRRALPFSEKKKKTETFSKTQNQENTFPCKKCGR

HDAC8 = target: T1, HDAC8 (Homo sapiens, UniProt Q9BY41); experiment: as above; conditions: protein HDAC8; class I HDAC
T1 construct: used to probe endogenous HDACs in K562 whole cell extracts; endogenous in cells
T1 sequence (Q9BY41 whole entry): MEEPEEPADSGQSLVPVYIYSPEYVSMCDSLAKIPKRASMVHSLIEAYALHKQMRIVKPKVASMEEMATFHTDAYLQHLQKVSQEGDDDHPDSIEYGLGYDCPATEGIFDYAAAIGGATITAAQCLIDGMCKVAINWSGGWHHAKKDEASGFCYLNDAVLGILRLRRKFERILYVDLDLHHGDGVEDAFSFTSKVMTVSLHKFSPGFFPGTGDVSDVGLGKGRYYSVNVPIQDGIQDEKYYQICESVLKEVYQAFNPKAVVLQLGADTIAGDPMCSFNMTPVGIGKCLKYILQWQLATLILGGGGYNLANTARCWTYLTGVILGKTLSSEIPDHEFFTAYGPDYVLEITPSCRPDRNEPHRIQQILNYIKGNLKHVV

HDAC2 = target: T2, HDAC2 (Homo sapiens, UniProt Q92769); experiment: as above; conditions: protein HDAC2; class I HDAC
T2 construct: used to probe endogenous HDACs in K562 whole cell extracts; endogenous in cells
T2 sequence (Q92769 whole entry): as the sequence (Q92769 whole entry) above

SMARCC2 = experiment: Competition binding assay in cell lysate, affinity matrix, MS (SMRT/NCoR interactor)
PPP4C = target: T3, PPP4C (Homo sapiens, UniProt P60510); experiment: Competition binding assay in cell lysate, affinity matrix, MS
T3 construct: endogenous in cells
T3 sequence (P60510 1-307): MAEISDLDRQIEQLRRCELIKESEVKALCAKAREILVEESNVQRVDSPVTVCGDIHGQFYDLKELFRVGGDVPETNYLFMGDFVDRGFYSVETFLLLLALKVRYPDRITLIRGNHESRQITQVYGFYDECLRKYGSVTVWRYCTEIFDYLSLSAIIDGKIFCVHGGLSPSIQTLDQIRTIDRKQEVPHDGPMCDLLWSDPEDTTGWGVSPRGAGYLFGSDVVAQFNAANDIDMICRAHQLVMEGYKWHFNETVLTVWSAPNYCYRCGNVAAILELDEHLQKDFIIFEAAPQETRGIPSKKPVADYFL

MBD3 = experiment: Competition binding assay in cell lysate, affinity matrix, MS (Mi-2/NuRD interactor); conditions: K-562 cell lysate
DNTTIP1 = experiment: Competition binding assay in cell lysate, affinity matrix, MS; conditions: K-562 cell lysate
BZW2 = target: T4, BZW2 (Homo sapiens, UniProt Q9Y6E2); experiment: as above
T4 construct: endogenous in cells
T4 sequence (Q9Y6E2 1-419): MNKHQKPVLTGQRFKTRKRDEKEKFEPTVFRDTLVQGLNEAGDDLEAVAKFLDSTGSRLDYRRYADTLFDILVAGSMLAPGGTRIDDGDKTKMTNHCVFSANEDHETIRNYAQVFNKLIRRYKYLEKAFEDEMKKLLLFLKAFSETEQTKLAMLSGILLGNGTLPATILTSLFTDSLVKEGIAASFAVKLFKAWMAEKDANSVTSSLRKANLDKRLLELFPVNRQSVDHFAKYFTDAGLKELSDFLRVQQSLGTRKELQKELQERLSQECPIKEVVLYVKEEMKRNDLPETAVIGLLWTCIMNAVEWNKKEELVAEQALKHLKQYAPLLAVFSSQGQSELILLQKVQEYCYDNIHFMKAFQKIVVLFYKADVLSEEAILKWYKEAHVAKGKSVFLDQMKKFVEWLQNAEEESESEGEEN

ISOC1 = target: T5, ISOC1 (Homo sapiens, UniProt Q96CN7); experiment: as above
T5 construct: endogenous in cells
T5 sequence (Q96CN7 1-298): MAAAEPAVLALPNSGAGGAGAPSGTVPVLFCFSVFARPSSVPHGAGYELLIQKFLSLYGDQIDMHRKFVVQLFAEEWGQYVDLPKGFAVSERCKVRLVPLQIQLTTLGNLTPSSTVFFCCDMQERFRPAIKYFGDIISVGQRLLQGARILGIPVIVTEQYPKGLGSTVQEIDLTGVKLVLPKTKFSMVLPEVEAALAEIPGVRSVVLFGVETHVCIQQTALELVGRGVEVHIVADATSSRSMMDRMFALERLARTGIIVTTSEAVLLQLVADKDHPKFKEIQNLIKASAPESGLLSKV

GATAD2A = experiment: Competition binding assay in cell lysate, affinity matrix, MS (Mi-2/NuRD interactor); conditions: K-562 cell lysate
ALDH2 = target: T6, ALDH2 (Homo sapiens, UniProt P05091); experiment: Competition binding assay in cell lysate, affinity matrix, MS
T6 construct: endogenous in cells
T6 sequence (P05091 18-517): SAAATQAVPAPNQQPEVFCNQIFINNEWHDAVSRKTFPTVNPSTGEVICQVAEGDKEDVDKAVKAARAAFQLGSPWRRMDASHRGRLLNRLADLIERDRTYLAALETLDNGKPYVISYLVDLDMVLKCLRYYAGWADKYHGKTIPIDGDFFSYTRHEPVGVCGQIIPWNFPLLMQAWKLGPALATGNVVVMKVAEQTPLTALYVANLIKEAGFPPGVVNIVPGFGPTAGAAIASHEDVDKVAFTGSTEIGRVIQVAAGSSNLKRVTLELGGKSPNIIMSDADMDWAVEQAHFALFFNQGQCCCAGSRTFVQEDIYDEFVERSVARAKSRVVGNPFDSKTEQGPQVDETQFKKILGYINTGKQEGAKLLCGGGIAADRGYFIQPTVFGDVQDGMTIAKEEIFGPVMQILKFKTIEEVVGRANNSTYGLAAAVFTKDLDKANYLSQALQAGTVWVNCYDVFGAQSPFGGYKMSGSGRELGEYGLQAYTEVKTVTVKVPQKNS

MTA2 = experiment: Competition binding assay in cell lysate, affinity matrix, MS (Mi-2/NuRD interactor)
SIN3A = conditions: K-562 cell lysate
[2] = test system: histone acetylation, K562 cells; experiment: Mapping of histone acetylation by LC-MS/MS of K562 cells treated with HDACi; format: cell-based, human; conditions: K562 cells treated 6 hours, isobaric tagging and MS/MS
[3] = mix of Jurkat and Ramos cell lysates

Row | SMILES | Kd [1] | Kd (HDAC8) | Kd (HDAC2) | IC50 (SMARCC2; K-562 cell lysate) | IC50 (PPP4C; read-out: IC50) | IC50 (MBD3) | IC50 (DNTTIP1) | IC50 (MTA2; K-562 cell lysate) | other results
1 | Nc1ccccc1NC(=O)CCCCCCC(=O)Nc1ccccc1 [BML-210] | > 85 µM | > 85 µM | 35 µM |  |  |  |  |  | 
2 | Nc1ccccc1NC(=O)c1ccc(CNC(=O)OCc2cccnc2)cc1 [MS-275] |  |  |  | 300 µM | ≥ 300 µM | 300 µM | 300 µM | 300 µM | IC50 (BZW2; read-out: IC50): ≥ 300 µM; IC50 (ISOC1; read-out: IC50): ≥ 300 µM; IC50 (GATAD2A): 300 µM; IC50 (ALDH2; read-out: IC50): ≥ 300 µM
3 | O=C(CCCCCCC(=O)Nc1ccccc1)NO [SAHA, suberoylanilide hydroxamic acid] |  |  |  | 10 µM | ≥ 10 µM | 0.61 µM | 0.48 µM | 10 µM | IC50 (SMARCC2; [3]): 10 µM; IC50 (PPP4C; IC50, PPP4C, mix of Jurkat and Ramos cell lysates): 10 µM; IC50 (BZW2; IC50, BZW2, K-562 cell lysate): 3.07 µM; IC50 (BZW2; IC50, BZW2, mix of Jurkat and Ramos cell lysates): 10 µM; IC50 (ISOC1; IC50, ISOC1, K-562 cell lysate): 1.1 µM; IC50 (ISOC1; IC50, ISOC1, mix of Jurkat and Ramos cell lysates): 2.19 µM; IC50 (SIN3A): 0.57 µM; IC50 (ALDH2; IC50, ALDH2, K-562 cell lysate): 0.63 µM; IC50 (ALDH2; IC50, ALDH2, mix of Jurkat and Ramos cell lysates): 4.81 µM; IC50 (MTA2; [3]): 0.53 µM
4 | CCCCOc1ccc(CC(=O)NO)cc1 [bufexamac] | 151 µM | 243 µM | > 59.7 µM |  |  |  |  |  | 
5 | CCCC(CCC)C(=O)O [valproate, valproic acid] |  |  |  |  |  |  |  |  | abundance of acetylated histone peptides (in words) [2]: more selective effect
